# Data taken from US10144708B2, “Crystalline arylalkylamine compound and process for producing the same” (MITSUBISHI TANABE PHARMA CORPORATION, priority 2013, dated 2018).
# How the values were obtained:
# Type in all cases: physicochemical
# [1] = Stability test: storage of Compound (A) and salts thereof, total increase in amounts of related substance; conditions: for Total increase in amounts of related substance (%): storage 60° C., 1 Week; for Increase in the amounts of related substance on storage (in words): storage conditions of Table 3 (60° C., Natural or 75% RH, 1 Week)
# Experimental: Compound (A) and salts thereof were stored under the storage conditions described in Table 3, and the total increase in the amounts of related substance was measured.
# [2] = Determination of crystal form stable at room temperature (form A and form B suspended together in chloroform, powder X-ray diffractometry); conditions: equal amounts of form A and form B suspended in chloroform, stirred at room temperature overnight
# Experimental: Equal amounts of the form A crystal and the form B crystal of Compound (A) were added to the same container and were suspended in chloroform. The suspension was stirred at room temperature overnight. Thereafter, the suspended matter was filtered off and was analyzed by powder X-ray diffractometry to determine the type of the crystal form.
# [3] = Stability test: storage of Compound (A) and salts thereof, total increase in amounts of related substance; conditions: conditions of No. 16 of Table 3: 60° C., 75% RH, 1 Week
# [4] = Natural humidity, hydrochloride
structure (smiles),measurement,setting,value
"C[C@@H](N[C@H]1CCN(c2ccc(CC(=O)O)cc2)C1)c1cccc2ccccc12 [Compound (A) Amorphous, 4-(3S-(1R-(1-naphthyl)ethylamino)pyrrolidin-1-yl)phenylacetic acid (amorphous)]",Total increase in amounts of related substance (%),[1]; 75% RH,14.16%
same,Total increase in amounts of related substance (%),[1]; Natural humidity,3.32%
same,Increase in the amounts of related substance on storage (in words),[1]; listed as amorphous Compound (A),significantly increased
"Br.C[C@@H](N[C@H]1CCN(c2ccc(CC(=O)O)cc2)C1)c1cccc2ccccc12 [Compound (A) 1HBr Crystal, 4-(3S-(1R-(1-naphthyl)ethylamino)pyrrolidin-1-yl)phenylacetic acid.monohydrobromide]",Total increase in amounts of related substance (%),[1]; 75% RH,0.13%
same,Total increase in amounts of related substance (%),[1]; Natural humidity,0.21%
same,Increase in the amounts of related substance on storage (in words),[1],increase in the amounts of related substance was observed
"C[C@@H](N[C@H]1CCN(c2ccc(CC(=O)O)cc2)C1)c1cccc2ccccc12.Cl [Compound (A) 1.7HCl Amorphous, 4-(3S-(1R-(1-naphthyl)ethylamino)pyrrolidin-1-yl)phenylacetic acid.1.7 hydrochloride]",Total increase in amounts of related substance (%),"[1]; 75% RH, hydrochloride",3.06%
same,Total increase in amounts of related substance (%),[1]; [4],8.33%
same,Increase in the amounts of related substance on storage (in words),"[1]; listed as amorphous Compound (A).1.7 hydrochloride, hydrochloride",significantly increased
"C[C@@H](N[C@H]1CCN(c2ccc(CC(=O)O)cc2)C1)c1cccc2ccccc12.Cl [Compound (A) 1.5HCl Amorphous, 4-(3S-(1R-(1-naphthyl)ethylamino)pyrrolidin-1-yl)phenylacetic acid-1.5 hydrochloride]",Total increase in amounts of related substance (%),"[1]; 75% RH, hydrochloride",3.11%
same,Total increase in amounts of related substance (%),[1]; [4],8.21%
same,Increase in the amounts of related substance on storage (in words),"[1]; listed as amorphous Compound (A).1.5 hydrochloride, hydrochloride",significantly increased
"C[C@@H](N[C@H]1CCN(c2ccc(CC(=O)O)cc2)C1)c1cccc2ccccc12 [Compound (A) Crystal (Form A), 4-(3S-(1R-(1-naphthyl)ethylamino)pyrrolidin-1-yl)phenylacetic acid (form A crystal)]",Total increase in amounts of related substance (%),[1]; 75% RH,0.01%
same,Total increase in amounts of related substance (%),[1]; Natural humidity,0.03%
same,Increase in the amounts of related substance on storage (in words),[1]; listed as form A crystal of Compound (A),did not show a marked increase
same,Crystal form stable at room temperature,[2],more stable at room temperature
"C1CCOC1.C[C@@H](N[C@H]1CCN(c2ccc(CC(=O)O)cc2)C1)c1cccc2ccccc12.Cl [Compound (A) 1HCl•1THF Crystal, 4-(3S-(1R-(1-naphthyl)ethylamino)pyrrolidin-1-yl)phenylacetic acid.monohydrochloride.monotetrahydrofuran solvate]",Total increase in amounts of related substance (%),[1]; 75% RH,1.04%
same,Total increase in amounts of related substance (%),[1]; Natural humidity,0.75%
same,Increase in the amounts of related substance on storage (in words),[1],increase in the amounts of related substance was observed
same,Change of solid form on storage,[3],conversion thereof into Compound (A).monohydrochloride (crystal)
"C[C@@H](N[C@H]1CCN(c2ccc(CC(=O)O)cc2)C1)c1cccc2ccccc12.Cl [Compound (A) 1HCl Crystal, 4-(3S-(1R-(1-naphthyl)ethylamino)pyrrolidin-1-yl)phenylacetic acid-monohydrochloride]",Total increase in amounts of related substance (%),[1]; 75% RH,1.02%
same,Total increase in amounts of related substance (%),[1]; Natural humidity,0.18%
same,Increase in the amounts of related substance on storage (in words),[1]; listed as Compound (A).monohydrochloride,increase in the amounts of related substance was observed
"C[C@@H](N[C@H]1CCN(c2ccc(CC(=O)O)cc2)C1)c1cccc2ccccc12 [Compound (A) Crystal (Form B), 4-(3S-(1R-(1-naphthyl)ethylamino)pyrrolidin-1-yl)phenylacetic acid (form B crystal)]",Total increase in amounts of related substance (%),[1]; 75% RH,0.00%
same,Total increase in amounts of related substance (%),[1]; Natural humidity,0.00%
same,Increase in the amounts of related substance on storage (in words),[1]; listed as form B crystal of Compound (A),did not show a marked increase
